{"source": "patent US7772269B2", "about": "“Pyrazole analogs” (Pfizer Inc., priority 2006, dated 2010)", "key": {"[1]": {"test": "Emesis evaluation in beagle dogs", "type": "in vivo", "conditions": "for emesis / emesis (number of dogs): dogs", "method": "Experiments were undertaken to differentiate local gastrointestinal emetic stimuli during dissolution and absorption of an oral compound from emetic stimuli produced during systemic exposure through the bloodstream. […] These findings were observed after 8-12 kg purpose-bred beagle dogs were administered 4-(3-{[4-(1-methyl-1H-pyrazol-5-yl)phenyl]thio}phenyl)tetrahydro-2H-pyran-4-carboxamide by IV infusion, using a loading dose followed by a slow infusion to attain a peak blood level over 30 minutes to 1 hour in duration. More specifically, compounds were diluted in phosphate buffered saline to a concentration where 10 ml/kg total volume was administered through an intravenous catheter using an infusion pump, with approximately 90% of the total dose being delivered in the first 5 minutes, and the remaining dose administered over the next 25 minutes. Similar delivery methods to produce an exposure that approximates the systemic pharmacokinetic profile seen with oral delivery are anticipated to give similar results. More rapid methods of administration and the resultant high plasma concentrations are not anticipated to discriminate useful compounds from non-useful compounds. For example, IV bolus administration may produce a higher peak plasma concentration and systemic gastrointestinal effects than those achieved for compounds that following absorption from the GI tract, would have acceptable peak plasma concentrations and therapeutic efficacy. […] Periodic serum and plasma samples were obtained during the first 6 hours to document systemic inhibition of the 5-lipoxygenase enzyme as well as exposure levels of the compound. […] In one study, 4-(3-(4-(2-methyl-1H-imidazol-1-yl)phenylthio)phenyl)-tetrahydro-2H-pyran-4-carboxamide was administered intravenously at 10 mg/kg, 30 mg/kg and 60 mg/kg as well as 30 mg per kg by the oral route. […] In another experiment, 4-(3-{[4-(1-methyl-1H-pyrazol-5-yl)phenyl]thio}phenyl)tetrahydro-2H-pyran-4-carboxamide was administered orally at doses of 100 mg per kg, 300 mg per kg, and 600 mg per kg, with emesis only observed in 2 dogs at 100 mg per kg and one dog at 300 mg per kg."}, "5-lipoxygenase enzyme": {"tested_on": "5-lipoxygenase enzyme", "test": "Systemic inhibition of the 5-lipoxygenase enzyme in dogs (emesis study)", "type": "in vivo, beagle dogs", "conditions": "5 mg/kg IV", "method": "Experiments were undertaken to differentiate local gastrointestinal emetic stimuli during dissolution and absorption of an oral compound from emetic stimuli produced during systemic exposure through the bloodstream. […] These findings were observed after 8-12 kg purpose-bred beagle dogs were administered 4-(3-{[4-(1-methyl-1H-pyrazol-5-yl)phenyl]thio}phenyl)tetrahydro-2H-pyran-4-carboxamide by IV infusion, using a loading dose followed by a slow infusion to attain a peak blood level over 30 minutes to 1 hour in duration. More specifically, compounds were diluted in phosphate buffered saline to a concentration where 10 ml/kg total volume was administered through an intravenous catheter using an infusion pump, with approximately 90% of the total dose being delivered in the first 5 minutes, and the remaining dose administered over the next 25 minutes. Similar delivery methods to produce an exposure that approximates the systemic pharmacokinetic profile seen with oral delivery are anticipated to give similar results. More rapid methods of administration and the resultant high plasma concentrations are not anticipated to discriminate useful compounds from non-useful compounds. […]"}, "5-LO [2]": {"target": "T1, 5-LO (Homo sapiens, UniProt P09917)", "T1 sequence (P09917 1-674)": "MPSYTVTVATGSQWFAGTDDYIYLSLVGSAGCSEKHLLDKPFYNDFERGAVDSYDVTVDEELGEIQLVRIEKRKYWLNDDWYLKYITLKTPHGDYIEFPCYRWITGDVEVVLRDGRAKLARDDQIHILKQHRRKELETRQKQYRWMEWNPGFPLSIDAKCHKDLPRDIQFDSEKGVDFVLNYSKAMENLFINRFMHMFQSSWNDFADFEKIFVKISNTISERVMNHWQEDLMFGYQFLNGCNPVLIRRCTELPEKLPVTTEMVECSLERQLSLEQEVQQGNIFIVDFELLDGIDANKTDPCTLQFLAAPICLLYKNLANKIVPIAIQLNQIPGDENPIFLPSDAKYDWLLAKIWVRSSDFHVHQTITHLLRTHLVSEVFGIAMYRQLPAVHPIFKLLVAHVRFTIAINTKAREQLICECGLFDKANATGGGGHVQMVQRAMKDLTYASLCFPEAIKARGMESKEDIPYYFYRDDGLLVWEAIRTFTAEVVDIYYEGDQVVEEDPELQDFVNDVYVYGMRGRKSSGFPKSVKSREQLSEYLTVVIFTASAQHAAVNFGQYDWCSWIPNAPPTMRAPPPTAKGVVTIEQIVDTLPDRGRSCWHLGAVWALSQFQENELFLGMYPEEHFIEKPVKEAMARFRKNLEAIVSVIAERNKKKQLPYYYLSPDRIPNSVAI", "test": "Fluorescence Intensity 5-LO Enzyme Assay", "type": "biochemical", "conditions": "recombinant human 5-LO crude lysate, H2DCFDA oxidation, 3 μM arachidonic acid", "method": "The enzyme assay is based on the oxidation of the non-fluorescent compound 2′,7′-dichlorodihydrofluorescein diacetate (H2DCFDA) to the fluorescent 2′,7′ dichlorofluorescein by 5-LO in an arachidonic acid-dependent reaction. Ester cleavage of the acetate groups of the substrate H2DCFDA must occur prior to oxidation. This is achieved through use of a crude cell lysate preparation of recombinant human 5-LO. The enzyme assay ([…]) contained 50 mM Tris (pH 7.5), 2 mM CaCl2, 2 mM EDTA, 3 μM arachidonic acid (Nu-Chek Prep; #S-1133), 10 μM ATP, 10 μM H2DCFDA (Invitrogen; #D399), inhibitor (varying concentration) and recombinant human 5-LO enzyme (1.25 μL crude lysate per well).\nInhibitors (dissolved in DMSO) were plated into a 384-well assay plate (Corning #3654) at 1 μL followed by a 20 μL addition of a solution containing 5-LO enzyme and H2DCFDA. Enzyme and H2DCFDA were pre-incubated for 5 minutes to allow time for acetate group cleavage of the dye prior to addition to the assay plate. After a 10 minute preincubation of inhibitor and enzyme/dye mix, the assay was initiated by the addition of a substrate solution containing arachidonic acid and ATP. The enzymatic reaction was run for 20 min at room temperature and terminated by the addition of 40 μL of acetonitrile. Assay plates were read in a plate reader using standard wavelengths for fluorescein. […]"}, "5-LO [3]": {"target": "T1, 5-LO", "test": "Eicosanoid production from human whole blood (HWB/LTB4: ionophore induced LTB4)", "type": "cell-based", "design": "from tissue; host or cells: pooled human whole blood", "method": "Human whole blood was collected from healthy or asthmatic human donors in 10 ml heparinized tubes (Vacutainer tubes; Becton Dickenson, Franklin Lakes, N.J.). Collected blood was pooled and 80 μl was dispensed into each well of 384 well polypropylene plates using a Multi-Drop™ 384-well dispenser (Titertek, Huntsville, Ala.). Varying concentrations of compounds were dissolved in DMSO then 2 μl/well was added to the blood using a PlateMate Plus™ automated pipetting station (Matrix Technologies, Hudson, N.H.). The compounds were preincubated with the blood at room temperature for 10 minutes followed by stimulation with 40 μl calcium ionophore (A23187, Sigma Chemical Co, St. Louis, Mo., Cat. # C-7522) and 30 μl arachidonic acid (S-1133, NU-Chek PREP, Inc., Elysian, MN, Cat. # S-1133) dissolved in 60% ethanol. After 15 min incubation at 37° C. in a shallow water bath, the blood was centrifuged at 800 g for 10 minutes at 4° C., the supernatants collected, and leukotriene and prostaglandin levels measured by ELISA according to the manufacturer's directions (Cayman Chemical Company, Ann Arbor, Mich.). The assay was performed at a final concentration of 2.5% DMSO. Results of this assay are shown as follows:\nHWB/LTB4: Ionophore Induced LTB4 from Human Whole Blood"}, "5-LO [4]": {"target": "T2, 5-LO (Rattus norvegicus, UniProt P12527)", "T2 construct": "from tissue; host or cells: rat air pouch (Lewis rat, in vivo)", "T2 sequence (P12527 1-673)": "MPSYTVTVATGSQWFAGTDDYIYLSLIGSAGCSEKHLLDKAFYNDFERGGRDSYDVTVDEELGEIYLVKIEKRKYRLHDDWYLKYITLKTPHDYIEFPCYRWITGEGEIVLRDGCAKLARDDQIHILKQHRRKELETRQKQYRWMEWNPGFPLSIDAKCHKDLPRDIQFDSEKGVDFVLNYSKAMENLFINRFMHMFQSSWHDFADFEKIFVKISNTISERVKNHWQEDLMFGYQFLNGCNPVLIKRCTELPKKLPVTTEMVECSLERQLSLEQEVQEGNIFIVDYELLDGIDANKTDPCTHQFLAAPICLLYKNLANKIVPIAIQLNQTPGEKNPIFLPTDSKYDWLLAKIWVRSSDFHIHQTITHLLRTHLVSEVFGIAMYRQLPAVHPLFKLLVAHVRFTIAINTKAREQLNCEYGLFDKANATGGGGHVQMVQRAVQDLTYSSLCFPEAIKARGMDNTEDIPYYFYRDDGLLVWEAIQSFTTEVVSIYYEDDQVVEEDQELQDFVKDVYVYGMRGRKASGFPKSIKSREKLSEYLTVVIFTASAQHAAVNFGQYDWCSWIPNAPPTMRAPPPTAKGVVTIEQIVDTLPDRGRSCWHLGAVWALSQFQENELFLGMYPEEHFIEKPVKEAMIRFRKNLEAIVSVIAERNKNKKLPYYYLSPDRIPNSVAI", "test": "Carrageenan-induced eicosanoid production in the rat air pouch", "type": "in vivo", "conditions": "leukotriene levels in rat air pouch fluid, lower % = higher activity", "method": "For a correct interpretation of the results, it is noted that the lower the % of control, the higher the activity of a test compound. Male Lewis rats (175-200 g), Charles River Laboratories, Wilmington, Mass.) were used in the study. Air pouches were produced by subcutaneous injection of 20 ml of sterile air into the intrascapular area of the back. Pouches were allowed to develop for 1 day. Animals (6 per group) were fasted with free access to water for 16 to 24 hours prior to drug administration. Drugs or vehicle were administered by gavage 1 hour prior to injection of 2 ml of a 1% suspension of carrageenan (FMC BioPolymer, Philadelphia, Pa., Cat. # GP209-NF) dissolved in saline into the pouch. At 3 hours post-carrageenan injection, 1 ml of 50 μg/ml calcium ionophore in saline (A23187, Sigma Chemical Co, St. Louis, M, Cat. #C-7522) was injected into the pouch and the pouch fluid collected 10 minutes later by lavage. The fluid was centrifuged at 3500 rpm for 10 minutes at 4° C., and the supernatants were collected for analysis. Leukotriene levels were quantitated by ELISA according to the manufacturer's directions (Cayman Chemical Company, Ann Arbor, Mich.)."}, "[5]": {"conditions": "clinical trial; cited from earlier work"}}, "data": [{"smiles": "Cn1nccc1-c1ccc(Sc2cccc(C3(C(N)=O)CCOCC3)c2)cc1", "note": "[(Ib), 4-(3-{[4-(1-methyl-1H-pyrazol-5-yl)phenyl]thio}phenyl)tetrahydro-2H-pyran-4-carboxamide]", "values": [{"measurement": "nausea and emesis", "setting": "[1]; beagle dogs, IV infusion (loading dose followed by slow infusion)", "value": "produce nausea and emesis through systemic exposure"}, {"measurement": "emesis", "setting": "[1]; 5 mg/kg IV", "value": "no observed emesis"}, {"measurement": "emesis (number of dogs)", "setting": "[1]; another experiment, oral 100 mg per kg", "value": 2, "unit": "dogs"}, {"measurement": "emesis (number of dogs)", "setting": "[1]; another experiment, oral 300 mg per kg", "value": "one dog"}, {"measurement": "emesis", "setting": "[1]; another experiment, oral 600 mg per kg", "value": "No emesis was observed"}, {"measurement": "emesis", "setting": "[1]; oral route, doses of 10 and 100 mg per kg", "value": "emesis in only one dog at 100 mg per kg"}, {"measurement": "inhibition of the 5-LO enzyme", "setting": "5-lipoxygenase enzyme", "value": 100, "unit": "%"}, {"measurement": "IC50", "setting": "5-LO [2]", "value": 229, "unit": "nM"}, {"measurement": "IC50", "setting": "5-LO [3]", "value": 135, "unit": "nM"}, {"measurement": "IC80", "setting": "5-LO [3]", "value": 397, "unit": "nM"}, {"measurement": "IC90", "setting": "5-LO [3]", "value": 716, "unit": "nM"}, {"measurement": "% of Control", "setting": "5-LO [4]; dose 1 mg/kg by gavage", "value": "20.24 % of Control"}, {"measurement": "% of Control", "setting": "5-LO [4]; dose 3 mg/kg by gavage, 3 mg/kg", "value": "5.23 % of Control"}, {"measurement": "% of Control", "setting": "5-LO [4]; dose 3 mg/kg by gavage, listed as 4-(3-{[4-(1-methyl-1H-pyrazol-5-yl)phenyl]thio}phenyl)tetrahydro-2H-pyran-4-carb, 3 mg/kg", "value": "20 % of Control"}, {"measurement": "% of Control", "setting": "5-LO [4]; dose 10 mg/kg by gavage", "value": "2.30 % of Control"}]}, {"smiles": "Cn1nccc1-c1ccc(Sc2cccc(C3(C(N)=O)CCOCC3)c2)cc1F", "note": "[(Ia), 4-(3-{[3-fluoro-4-(1-methyl-1H-pyrazol-5-yl)phenyl]thio}phenyl)tetrahydro-2H-pyran-4-carboxamide]", "values": [{"measurement": "IC50", "setting": "5-LO [2]", "value": 204, "unit": "nM"}, {"measurement": "IC50", "setting": "5-LO [3]", "value": 152, "unit": "nM"}, {"measurement": "IC80", "setting": "5-LO [3]", "value": 357, "unit": "nM"}, {"measurement": "IC90", "setting": "5-LO [3]", "value": 1310, "unit": "nM"}, {"measurement": "% of Control", "setting": "5-LO [4]; dose 1 mg/kg by gavage", "value": "25.74 % of Control"}, {"measurement": "% of Control", "setting": "5-LO [4]; dose 3 mg/kg by gavage", "value": "0 % of Control"}, {"measurement": "% of Control", "setting": "5-LO [4]; dose 10 mg/kg by gavage", "value": "0 % of Control"}]}, {"smiles": "Cc1nccn1-c1ccc(Sc2cccc(C3(C(N)=O)CCOCC3)c2)cc1", "note": "[4-(3-(4-(2-methyl-1H-imidazol-1-yl)phenylthio)phenyl)-tetrahydro-2H-pyran-4-carboxamide, reference compound]", "values": [{"measurement": "emesis", "setting": "[1]; intravenously at 10, 30 and 60 mg/kg and 30 mg per kg oral", "value": "Emesis was observed in all dogs"}, {"measurement": "nausea or emesis", "setting": "[5]", "value": "30 % of human subjects"}]}]}
